Values of other authors as cited in patent publication US10391078B2, “Methods for the treatment of mast cell related disorders with mast cell stabilizers” (Respivant Sciences GmbH, priority 2015, dated 2019).
Like-named read-outs stand apart in the source and are kept apart here.

O=C(O)c1cc(=O)c2c(OCC(O)COc3cccc4oc(C(=O)O)cc(=O)c34)cccc2o1 [cromolyn sodium]
oral bioavailability: less than 1% | oral bioavailability (listed as cromolyn): about 1%
